Legend:
[1] = tested on: humanized Siglec-11 transgenic mice or littermate control mice; assay: Laser-induced animal model of macular degeneration, intravitreal injection; format: in vivo
Source text: An animal model of macular degeneration was induced by laser technology. Experimental damage of the mouse retina using a laser is a well-accepted animal model for age-related macular degeneration. Laser coagulation and direct damage of Bruch's membrane rapidly lead to microglia and complement activation and induce vascular leakage. Fluorescence angiography is an established method to detect vascular leakage in the retina.
Humanized Siglec-11 transgenic mice (Wang Y, 2009, dissertation, University Bonn, uniform resource name: urn:nbn:de:hbz:5N-18095) or littermate control mice were used in this experiment.
Three argon laser coagulation spots were induced (125 mW, 100 ms, […], Viridis, Quantel Medical, France) in the retina of the mice. Directly afterwards the mice were injected intra-vitreally with PSA-20 (3 μg/per eye) or a PBS vehicle control.
Retinal tissue was analyzed 48 hours after the laser lesion by immunohistochemistry. Therefore, whole mount immunostaining was performed with a polyclonal rabbit-anti-ionized calcium-binding adapter molecule 1 (Iba1) antibody followed by fluorescein (FITC)-conjugated secondary antibody directed against rabbit immunoglobulin (IgG). Confocal images of the inner plexiform layer from the retina were collected and the percentage of the activated amoeboid microglia in relation to the total Iba1-positive microglia was determined in and outside the laser lesion of the PSA-20 treated Siglec-11 and the control mice.
To determine the inflammation mediated vascular leakage, fluorescein angiography was performed 48 hours after laser coagulation lesion of the retina. In detail, anesthetized animals were injected intraperitoneally with 0.1 ml 2.5% fluorescein in 0.9% sterile NaCl. Late stage angiography pictures were taken eleven minutes after fluorescein injection on a Spectralis HRA2 retina angiograph (Heidelberg Engineering) to visualize vessel leakage. Angiography pictures were exported from Heidelberg Eye Explorer Software as jpeg files. Pixel intensities of 6 regions of interest (roi) per picture were quantified with ImageJ and background fluorescence was subtracted.
At 48 hours before angiography, three argon laser coagulation spots were induced (125 mW, 100 ms, 100 μm, Viridis, Quantel Medical, France) in the retina of the Siglec-11 transgenic or littermate control mice. Mice were injected intra-vitreally with PSA-20 (3 μg/per eye) or a PBS vehicle control. […] Statistically significant groups were determined by One-Way ANOVA and Student's t-test. […]
Again, the laser damage of retinas was induced in the humanized Siglec-11 transgenic mice or littermate controls as described above. […] Single data points indicate individual eyes analyzed. Data were analyzed by ordinary one-way ANOVA followed by Tukey's multiple comparisons test. […]

[2] = tested on: human iPS cell derived neurons; assay: MTT cell viability of human iPS cell derived neurons; format: cell-based; settings: 24 hours
Protocol: Human induced pluripotent stem (iPS) cells (Foreskin-1, WiCell) were used for generation of primitive neural stem cell (pNSC) and their differentiation into neurons according to a modified protocol, which was described to obtain primitive neural precursors from human embryonic stem cells. Briefly, iPS cells were cultured on feeder cells to form small colonies. Next, medium was changed to neural stem cell medium (DMEM/F12:Neurobasal; GIBCO) in the presence of leukaemia inhibiting factor (LIF; Millipore, 10 ng/ml) and three small molecules CHIR99021 (inhibitor of GSK-30, Axon Medchem, […]) and SB431542 (inhibitor of TGF-β and activin receptors; Axon Medchem, 3 μM), and Compound E (inhibitor of γ-secretase; Axon Medchem, 0.1 μM) for 10 days. […]
Cell viability was determined by the (3-(4,5-Dimethylthiazol-2-yl)-2,5-diphenyltetrazolium bromide (MTT) assay (Millipore). Cells were treated for 24 hours with 5 nM, 15 nM, 50 nM, 150 nM, 500 nM, 1.5 μM, 5 μM, 15 μM, 50 μM or 150 μM of PSA-20. After 20 hours of stimulation, 10 μl of MTT-reagent was added and cells were cultured for another 4 hours. Then, cells were lysed with isopropanol containing 0.04 M HCl 1M to measure the dye formazan. The light absorbance of the purple formazan dye was determined by a spectrophotometer at a wavelength of 570 nm with a reference wavelength of 630 nm (Perkin Elmer, Envision Multiplate Reader). […]

## poly-(α(2→8)Neu5Ac)n [PSA-20]
[1]; Siglec-11 transgenic mice, 3 μg/per eye intravitreal, 48 hours after laser lesion, FIG. 7D
  Microglial activation (activated amoeboid microglia to total Iba1-positive microglia): significantly reduced
[1]; Siglec-11 transgenic mice, 3 μg/per eye intravitreal, 48 hours after laser, FIG. 7E
  vascular leakage (fluorescein angiography): significantly reduced vascular leakage
[1]; normal mice, 3 μg/per eye intravitreal, 48 hours after laser lesion
  microglial Iba1 immunoreactivity: No effect
[1]; repeat, at least 8 retinas per group, Siglec-11 transgenic mice, 48 hours, vehicle 117.8+/−7.8, FIG. 7G
  vascular leakage (fluorescein angiography): 84.07+/−8.2
[2]; 5 nM to 150 μM, FIG. 10A
  cell viability of human neurons (MTT): not reduced
[2]; 150 μM
  neuronal cell viability (MTT): no interference

Source: patent US9944721B2, “Polysialic acid and use for treatment of neurodegenerative and neuroinflammatory diseases” (RHEINISCHE FRIEDRICH-WILHELMS UNIVERSITÄT BONN, priority 2013, dated 2018)
